Experimental data from ChEMBL document CHEMBL1145284, “Combined target-based and ligand-based drug design approach as a tool to define a novel 3D-pharmacophore model of human A3 adenosine receptor antagonists: pyrazolo[4,3-e]1,2,4-triazolo[1,5-c]pyrimidine derivatives as a key study” (J Med Chem, 2005).

Target: T1, Adenosine receptor A3 (Homo sapiens, UniProt P0DMS8)
T1 sequence (P0DMS8 whole entry): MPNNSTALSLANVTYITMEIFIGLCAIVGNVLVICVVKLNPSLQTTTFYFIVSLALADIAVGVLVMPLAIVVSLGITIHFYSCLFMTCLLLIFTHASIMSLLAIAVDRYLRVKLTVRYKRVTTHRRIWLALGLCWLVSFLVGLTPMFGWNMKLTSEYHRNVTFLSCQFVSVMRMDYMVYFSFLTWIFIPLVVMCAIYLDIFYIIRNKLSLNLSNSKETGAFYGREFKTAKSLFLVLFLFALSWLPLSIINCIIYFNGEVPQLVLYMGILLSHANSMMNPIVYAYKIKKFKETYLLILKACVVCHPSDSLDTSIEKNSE
Description: Binding affinity for human adenosine A3 receptor

SMILES	Ki
CC(C)NC(=O)Nc1nc2nn(CCc3ccccc3)cc2c2nc(-c3ccco3)nn12	9 nM
Cc1ccc(NC(=O)Nc2nc3nn(CCC(C)C)cc3c3nc(-c4ccco4)nn23)cc1	7.41 nM
CCCCCCCCn1cc2c(nc(NC(=O)Nc3ccc(CC(=O)OCC)cc3)n3nc(-c4ccco4)nc23)n1	9.97 nM
CCCCCCCCn1cc2c(nc(NC(=O)Nc3ccc(C)cc3)n3nc(-c4ccco4)nc23)n1	4.48 nM
CC(C)(C)NC(=O)Nc1nc2nn(CCCc3ccccc3)cc2c2nc(-c3ccco3)nn12	65 nM
CCOC(=O)Cc1ccc(NC(=O)Nc2nc3nn(C)cc3c3nc(-c4ccco4)nn23)cc1	0.82 nM
NCCCC(=O)Nc1nc2nn(CCc3ccccc3)cc2c2nc(-c3ccco3)nn12	65 nM
CC(C)CCn1cc2c(nc(NC(=O)CCCNC(=O)OC(C)(C)C)n3nc(-c4ccco4)nc23)n1	2490 nM
CC(C)(C)OC(=O)NCCCC(=O)Nc1nc2nn(CCc3ccccc3)cc2c2nc(-c3ccco3)nn12	1480 nM
CC(C)(C)NC(=O)Nc1nc2nn(CCc3ccccc3)cc2c2nc(-c3ccco3)nn12	4.9 nM
CC(C)NC(=O)Nc1nc2nn(CCCc3ccccc3)cc2c2nc(-c3ccco3)nn12	55 nM
CCCCCCCCn1cc2c(nc(NC(=O)NCCCCC)n3nc(-c4ccco4)nc23)n1	7.83 nM
CCOC(=O)Cc1ccc(NC(=O)Nc2nc3nn(CCC(C)C)cc3c3nc(-c4ccco4)nn23)cc1	11.9 nM
CCCCCNC(=O)Nc1nc2nn(CCC(C)C)cc2c2nc(-c3ccco3)nn12	8.09 nM

Second part, the molecule after the results:

Ki	SMILES
811 nM	CC(C)=CCn1cc2c(nc(N)n3nc(-c4ccco4)nc23)n1
3.98 nM	CCCCCNC(=O)Nc1nc2nn(CC3CCCCC3)cc2c2nc(-c3ccco3)nn12
6.95 nM	CCOC(=O)Cc1ccc(NC(=O)Nc2nc3nn(CC4CCCCC4)cc3c3nc(-c4ccco4)nn23)cc1
16.3 nM	CCCCCCCCn1cc2c(nc(NC(=O)NC3CCCCC3)n3nc(-c4ccco4)nc23)n1
80 nM	NCCC(=O)Nc1nc2nn(CCc3ccccc3)cc2c2nc(-c3ccco3)nn12
39 nM	CC(C)CCn1cc2c(nc(NC(=O)NC(C)(C)C)n3nc(-c4ccco4)nc23)n1
5.94 nM	Cc1ccc(NC(=O)Nc2nc3nn(CC4CCCCC4)cc3c3nc(-c4ccco4)nn23)cc1
1720 nM	Nc1nc2nn(CC3CCCCC3)cc2c2nc(-c3ccco3)nn12
2050 nM	CCCCCCCCn1cc2c(nc(N)n3nc(-c4ccco4)nc23)n1
90 nM	CC(C)CCn1cc2c(nc(NC(=O)CCCN)n3nc(-c4ccco4)nc23)n1
1.95 nM	CCCCCNC(=O)Nc1nc2nn(C)cc2c2nc(-c3ccco3)nn12
15 nM	CCCn1cc2c(nc(NC(=O)NC(C)(C)C)n3nc(-c4ccco4)nc23)n1
21 nM	CCCn1cc2c(nc(NC(=O)NC(C)C)n3nc(-c4ccco4)nc23)n1
6.7 nM	O=C(Nc1nc2nn(CC3CCCCC3)cc2c2nc(-c3ccco3)nn12)NC1CCCCC1
20.5 nM	CC(C)CCn1cc2c(nc(NC(=O)NC3CCCCC3)n3nc(-c4ccco4)nc23)n1
65 nM	CC(C)CCn1cc2c(nc(NC(=O)NC(C)C)n3nc(-c4ccco4)nc23)n1
163 nM	NCC(=O)Nc1nc2nn(CCc3ccccc3)cc2c2nc(-c3ccco3)nn12
